Counter-ions that a name gives are not always drawn. Like-named read-outs stand apart in the source and are kept apart here.
Experiments:
[1] = test system: Phosphorylated Ribosomal Protein S6 (RPS6); assay: THP-1 RPS6 ELISA Assay; type: cell-based, Human; conditions: THP-1 cells, read-out: PI3Kγ_THP1_RPS6_ELISA IC50
Summary of the method: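 IC50 values come from a curve of percent inhibition against log compound concentration, using phospho-RPS6 ELISA (450 nm) on THP-1 lysates. Cells were serum-starved overnight, exposed to compound for 2 h at 37 °C, then challenged 15 min with 10 nM MCP-1.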

[2] = biological target: PI3Kγ (p110γ) Recombinant Human Protein (Homo sapiens (Human), UniProt P48736); assay: PI3K-γ Scintillation Proximity Assay; type: biochemical; conditions: read-out: PI3Kγ IC50
PI3Kγ (p110γ) Recombinant Human Protein, sequence (P48736 whole entry): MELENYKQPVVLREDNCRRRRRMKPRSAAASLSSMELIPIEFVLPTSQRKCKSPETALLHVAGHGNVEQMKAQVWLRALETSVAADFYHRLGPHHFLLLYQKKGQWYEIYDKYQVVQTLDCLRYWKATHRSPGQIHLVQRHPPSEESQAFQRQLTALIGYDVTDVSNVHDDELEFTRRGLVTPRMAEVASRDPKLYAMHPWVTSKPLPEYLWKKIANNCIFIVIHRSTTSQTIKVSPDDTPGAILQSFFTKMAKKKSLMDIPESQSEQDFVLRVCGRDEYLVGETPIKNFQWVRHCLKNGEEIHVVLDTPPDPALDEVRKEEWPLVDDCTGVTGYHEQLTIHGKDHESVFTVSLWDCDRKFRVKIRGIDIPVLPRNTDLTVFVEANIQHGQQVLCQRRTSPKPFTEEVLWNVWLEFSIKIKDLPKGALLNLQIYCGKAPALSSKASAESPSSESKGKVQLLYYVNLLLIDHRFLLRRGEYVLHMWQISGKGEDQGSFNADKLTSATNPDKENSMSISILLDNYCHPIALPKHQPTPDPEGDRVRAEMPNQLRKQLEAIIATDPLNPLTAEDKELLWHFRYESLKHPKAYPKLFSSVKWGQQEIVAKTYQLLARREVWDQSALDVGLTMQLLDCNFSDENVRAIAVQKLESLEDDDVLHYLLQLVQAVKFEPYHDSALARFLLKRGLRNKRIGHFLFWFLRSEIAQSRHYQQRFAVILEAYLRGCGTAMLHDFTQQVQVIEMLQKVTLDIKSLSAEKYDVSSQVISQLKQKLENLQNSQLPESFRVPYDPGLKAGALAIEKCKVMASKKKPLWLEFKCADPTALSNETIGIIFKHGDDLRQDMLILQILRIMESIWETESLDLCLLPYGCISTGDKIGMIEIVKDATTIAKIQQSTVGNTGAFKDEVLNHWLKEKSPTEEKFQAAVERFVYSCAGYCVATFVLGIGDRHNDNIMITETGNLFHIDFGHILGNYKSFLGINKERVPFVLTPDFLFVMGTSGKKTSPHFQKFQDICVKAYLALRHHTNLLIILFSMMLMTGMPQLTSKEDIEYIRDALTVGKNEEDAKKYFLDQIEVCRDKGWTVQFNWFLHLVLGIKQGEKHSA
Summary of the method: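 Radiometric SPA readout: […] bound to WGA beads after overnight shaking, IC50 derived from % activity of DMSO control. Reaction used human p110γ, 2 μM ATP, 20 μM PIP2, pH 6.7 MOPS buffer with MgCl2, DTT, CHAPS, 2% DMSO, room temperature.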

[3] = biological target: PI3Kδ (p110δ/p85α) Recombinant Human Protein (Homo sapiens (Human), UniProt O00329); assay: PI3Kδ Scintillation Proximity Assay; type: biochemical
PI3Kδ (p110δ/p85α) Recombinant Human Protein, sequence (O00329 whole entry): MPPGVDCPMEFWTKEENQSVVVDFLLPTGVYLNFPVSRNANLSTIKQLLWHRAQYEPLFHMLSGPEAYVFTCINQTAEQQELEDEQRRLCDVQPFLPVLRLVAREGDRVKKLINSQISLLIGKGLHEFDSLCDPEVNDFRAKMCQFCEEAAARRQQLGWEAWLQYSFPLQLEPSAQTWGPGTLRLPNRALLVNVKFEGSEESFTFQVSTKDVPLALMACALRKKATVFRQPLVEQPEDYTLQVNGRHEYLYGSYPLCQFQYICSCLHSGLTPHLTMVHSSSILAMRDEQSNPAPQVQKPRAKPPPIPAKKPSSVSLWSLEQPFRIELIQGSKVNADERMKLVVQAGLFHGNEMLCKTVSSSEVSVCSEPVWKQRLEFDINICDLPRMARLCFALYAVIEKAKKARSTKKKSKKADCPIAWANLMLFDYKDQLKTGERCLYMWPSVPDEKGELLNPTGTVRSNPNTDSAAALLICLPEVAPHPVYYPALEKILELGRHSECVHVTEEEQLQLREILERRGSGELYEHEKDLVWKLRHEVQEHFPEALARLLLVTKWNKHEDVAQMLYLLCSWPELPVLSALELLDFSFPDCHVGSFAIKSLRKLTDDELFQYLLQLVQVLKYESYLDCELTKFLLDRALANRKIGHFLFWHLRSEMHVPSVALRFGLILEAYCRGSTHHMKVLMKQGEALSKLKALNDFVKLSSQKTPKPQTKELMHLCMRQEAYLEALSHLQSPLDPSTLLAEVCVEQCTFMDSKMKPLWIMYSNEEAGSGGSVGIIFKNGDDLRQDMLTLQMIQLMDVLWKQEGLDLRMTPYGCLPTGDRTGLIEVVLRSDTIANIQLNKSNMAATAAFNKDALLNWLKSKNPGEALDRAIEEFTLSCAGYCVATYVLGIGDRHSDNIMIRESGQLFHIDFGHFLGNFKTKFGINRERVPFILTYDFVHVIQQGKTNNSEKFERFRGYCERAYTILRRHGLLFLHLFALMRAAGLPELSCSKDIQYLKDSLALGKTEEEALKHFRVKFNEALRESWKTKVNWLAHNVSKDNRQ
PI3Kδ (p110δ/p85α) Recombinant Human Protein, sequence (P27986 whole entry partner): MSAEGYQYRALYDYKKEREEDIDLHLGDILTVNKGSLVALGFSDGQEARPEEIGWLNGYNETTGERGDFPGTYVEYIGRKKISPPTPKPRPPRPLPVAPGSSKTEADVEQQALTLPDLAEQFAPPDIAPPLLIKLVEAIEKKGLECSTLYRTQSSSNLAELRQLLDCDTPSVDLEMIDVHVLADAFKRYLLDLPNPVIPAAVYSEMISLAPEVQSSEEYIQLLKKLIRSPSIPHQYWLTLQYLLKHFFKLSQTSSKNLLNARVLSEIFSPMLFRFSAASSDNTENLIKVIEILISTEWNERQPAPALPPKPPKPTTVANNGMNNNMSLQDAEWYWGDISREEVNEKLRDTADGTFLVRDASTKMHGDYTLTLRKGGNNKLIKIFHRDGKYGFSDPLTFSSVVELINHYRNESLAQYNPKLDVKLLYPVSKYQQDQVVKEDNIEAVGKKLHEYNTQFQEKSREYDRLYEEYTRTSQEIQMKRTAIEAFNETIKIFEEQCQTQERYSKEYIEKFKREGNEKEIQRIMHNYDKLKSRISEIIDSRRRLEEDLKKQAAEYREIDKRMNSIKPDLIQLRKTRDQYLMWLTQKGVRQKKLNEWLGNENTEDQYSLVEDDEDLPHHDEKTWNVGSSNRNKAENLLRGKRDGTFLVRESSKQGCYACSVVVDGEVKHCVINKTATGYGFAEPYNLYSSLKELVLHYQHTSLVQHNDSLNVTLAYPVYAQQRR
Summary of the method: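 Assay conditions: 2 μM ATP (radiolabelled), 20 μM PIP2, 3.4 nM PI3Kδ, 20 mM MOPS pH 6.7 with 10 mM MgCl2, 5 mM DTT, 0.03% CHAPS, 2 h at room temperature. Signal from bead-captured 33P product; IC50 versus solvent control.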

SMILES	IC50 ([1]; Homo sapiens) [nM]	IC50 [2] [nM]	IC50 [3] [nM]	IC50 [1] [nM]
Cc1ccc(S(=O)(=O)N[C@H]2CC[C@H](O)CC2)cc1-c1cnc2c(N)nc(-c3ccc(C(=O)N(C)C)cc3F)cn12 [Example 79, 4-[8-Amino-3-(5-{[(trans-4-hydroxycyclohexyl)amino]sulfonyl}-2-methylphenyl)imidazo[1,2-a]pyrazin-6-yl]-3-fluoro-N,N-dimethylbenzamide trifluoroacetate]	100 to 500	< 100	< 100	
Cc1ccc(S(=O)(=O)N[C@H]2CC[C@H](O)CC2)cc1-c1cnc2c(N)nc(-c3ccncc3F)cn12 [Example 81, 3-[8-Amino-6-(3-fluoropyridin-4-yl)imidazo[1,2-a]pyrazin-3-yl]-N-(trans-4-hydroxycyclohexyl)-4-methylbenzenesulfonamide]	< 100	< 100	< 100	
Cc1ccc(S(=O)(=O)N[C@H]2CC[C@H](O)CC2)cc1-c1cnc2c(N)nc(-c3ccc(C(C)O)cc3F)cn12 (stereo partly drawn) [Example 82, 3-(8-Amino-6-(2-fluoro-4-(1-hydroxyethyl)phenyl)imidazo[1,2-a]pyrazin-3-yl)-N-(trans-4-hydroxycyclohexyl)-4-methylbenzenesulfonamide]	< 100	< 100	< 100	
Cc1ccc(S(=O)(=O)NC2CCC(F)(F)CC2)cc1-c1cnc2c(N)nccn12 [Example 84, 3-(8-amionimidazo[1,2-a]pyrazin-3-yl)-N-(4,4-difluorocyclohexyl)-4-methylbenzenesulfonamide]		< 100	500 to 2000	> 1000
Cc1ccc(S(=O)(=O)NC2CCC(C)(O)CC2)cc1-c1cnc2c(N)nccn12 (stereo not drawn) [Example 85, 3-(8-aminoimidazo[1,2-a]pyrazin-3-yl)-N-(trans-4-hydroxy-4-methylcyclohexyl)-4-methylbenzenesulfonamide]		< 100	500 to 2000	100 to 500
Cc1ccc(S(=O)(=O)N[C@H]2C[C@](C)(C#N)C2)cc1-c1cnc2c(N)ncnn12 [Example 87, 3-(4-Aminoimidazo[1,2-f][1,2,4]triazin-7-yl)-N-((1r,3r)-3-cyano-3-methylcyclobutyl)-4-methylbenzenesulfonamide trifluoroacetate salt]		< 100	100 to 500	100 to 500
COC(=O)C12CC(NS(=O)(=O)c3ccc(C)c(-c4cnc5c(N)ncnn45)c3)(C1)C2 [Example 88, Methyl 3-(3-(4-aminoimidazo[1,2-f][1,2,4]triazin-7-yl)-4-methylphenylsulfonamido)bicyclo[1.1.1]pentane-1-carboxylate trifluoroacetate salt]		< 100	100 to 500	< 100
Cc1ccc(S(=O)(=O)N[C@H]2C[C@H](C#N)C2)cc1-c1cnc2c(N)ncnn12 [Example 89, 3-(4-Aminoimidazo[1,2-f][1,2,4]triazin-7-yl)-N-((1r,3r)-3-cyanocyclobutyl)-4-methylbenzenesulfonamide trifluoroacetate salt]		< 100	100 to 500	< 100
Cc1ccc(S(=O)(=O)NC23CCC(C#N)(CC2)C3)cc1-c1cnc2c(N)ncnn12 [Example 90, 3-(4-Aminoimidazo[1,2-f][1,2,4]triazin-7-yl)-N-(4-cyanobicyclo[2.2.1]heptan-1-yl)-4-methylbenzenesulfonamide trifluoroacetate salt]		< 100	100 to 500	< 100
Cc1ccc(S(=O)(=O)NC23CC(C(C)(C)O)(C2)C3)cc1-c1cnc2c(N)ncnn12 [Example 93, 3-(4-Aminoimidazo[1,2-f][1,2,4]triazin-7-yl)-N-(3-(2-hydroxypropan-2-yl)bicyclo[1.1.1]pentan-1-yl)-4-methylbenzenesulfonamide trifluoroacetate slt]		< 100	100 to 500	100 to 500
Cc1noc(C23CC(NS(=O)(=O)c4ccc(C)c(-c5cnc6c(N)ncnn56)c4)(C2)C3)n1 [Example 94, 3-(4-Aminoimidazo[1,2-f][1,2,4]triazin-7-yl)-4-methyl-N-(3-(3-methyl-1,2,4-oxadiazol-5-yl)bicyclo[1.1.1]pentan-1-yl)benzenesulfonamide trifluoroacetate salt]		< 100	100 to 500	500 to 1000
Cc1ccc(S(=O)(=O)NC23CC(C(=O)N(C)C)(C2)C3)cc1-c1cnc2c(N)ncnn12 [Example 96, 3-(3-(4-Aminoimidazo[1,2-f][1,2,4]triazin-7-yl)-4-methylphenylsulfonamido)-N,N-dimethylbicyclo[1.1.1]pentane-1-carboxamide trifluoroacetate salt]		< 100	100 to 500	> 1000
Cc1ccc(S(=O)(=O)NC23CC(C(F)(F)F)(C2)C3)cc1-c1cnc2c(N)ncnn12 [Example 97, 3-(4-Aminoimidazo[1,2-f][1,2,4]triazin-7-yl)-4-methyl-N-(3-(trifluoromethyl)bicyclo[1.1.1]pentan-1-yl)benzenesulfonamide trifluoroacetate salt]		< 100	100 to 500	100 to 500

The remaining lines, values ahead:

IC50 ([1]; Homo sapiens) [nM]	IC50 [2] [nM]	IC50 [3] [nM]	IC50 [1] [nM]	SMILES
100 to 500	< 100	100 to 500		Cc1ccc(S(=O)(=O)N[C@H]2CC[C@H](O)CC2)cc1-c1cnc2c(N)nc(-c3cc(C(F)(F)F)nn3C)cn12 [Example 80, 3-{8-Amino-6-[1-methyl-3-(trifluoromethyl)-1H-pyrazol-5-yl]imidazo[1,2-a]pyrazin-3-yl}-N-(trans-4-hydroxycyclohexyl)-4-methylbenzenesulfonamide]
> 1000	100 to 500	< 100		COc1cc(C)c(-c2cnc3c(N)nccn23)cc1S(=O)(=O)N[C@H]1CC[C@H](O)CC1 [Example 83, 5-(8-aminoimidazo[1,2-a]pyrazin-3-yl)-N-(trans-4-hydroxycyclohexyl)-2-methoxy-4-methylbenzenesulfonamide]
	< 100	500 to 2000	> 1000	Cc1ccc(S(=O)(=O)NCC2CCN(C(=O)C3CC3)CC2)cc1-c1cnc2c(N)nccn12 [Example 86, 3-(8-aminoimidazo[1,2-a]pyrazin-3-yl)-N-((1-(cyclopropanecarbonyl)piperidin-4-yl)methyl)-4-methylbenzenesulfonamide]
	< 100	100 to 500	100 to 500	Cc1ccc(S(=O)(=O)NC23CC(CC#N)(C2)C3)cc1-c1cnc2c(N)ncnn12 [Example 91, trifluoroacetate salt]
	< 100	100 to 500	< 100	Cc1ccc(S(=O)(=O)NC23CC(Cn4cccn4)(C2)C3)cc1-c1cnc2c(N)ncnn12 [Example 92, N-(3-((1H-pyrazol-1-yl)methyl)bicyclo[1.1.1]pentan-1-yl)-3-(4-aminoimidazo[1,2-f][1,2,4]triazin-7-yl)-4-methylbenzenesulfonamide trifluoroacetate salt]
	< 100	100 to 500	100 to 500	CC(=O)C12CC(NS(=O)(=O)c3ccc(C)c(-c4cnc5c(N)ncnn45)c3)(C1)C2 [Example 95, N-(3-Acetylbicyclo[1.1.1]pentan-1-yl)-3-(4-aminoimidazo[1,2-f][1,2,4]triazin-7-yl)-4-methylbenzenesulfonamide trifluoroacetate salt]

Source: patent US10479795B2 (Incyte Corporation, priority 2016, dated 2019)
